{
  "source": "patent US5240927A",
  "about": "“Benzo[β]thiophen-3-yl piperazines as antipsychotic agents” (Hoechst-Roussel Pharmaceuticals Incorporated, priority 1992, dated 1993)",
  "system": "apomorphine-induced climbing",
  "test": "Climbing Mice Assay (block of apomorphine-induced climbing)",
  "format": "in vivo, CK-1 male mice",
  "conditions": "Mus musculus, ip, read-out: Antipsychotic Activity (Climbing Mice Assay) ED50",
  "description": "The subject CK-1 male mice (23-27 grams) are group-housed under standard laboratory conditions. The mice are individually placed in wire mesh stick cages (4\"×4\" 10) and are allowed one hour for adaptation and exploration of the new environment.\nFor evaluation of climbing, three readings are taken at 10, 20 and 30 minutes after apomorphine administration according to the following scale: […]\nMice consistently climbing before the injection of apormorphine are discarded.\nWith full-developed apomorphine climbing, the animals are hanging onto the cage walls, rather motionless, over longer periods of time. By contrast, climbs due to mere motor stimulation usually last only a few seconds.\nThe climbing scores are individually totaled (maximal score; 6 per mouse over three readings) and the total score of the control group (vehicle intraperitioneally-apomorphine subcutaneously) is set to 100%.",
  "note": "Read-outs that look alike come from different tables or passages of the source.",
  "data": [
    {"compound": "COc1cc(C(C)=O)ccc1OCCCN1CCN(c2csc3cc(F)ccc23)CC1", "note": "[1-[4-[3-[4-(6-Fluorobenzo[b]thiophen-3-yl)-1-piperazinyl]propoxy]-3-methoxyphenyl]ethanone]", "values": [
      {"measurement": "ED50", "setting": "CK-1 male mice, compound i.p. 30 minutes prior to apomorphine 1.5 mg/kg s.c., readings at 10, 20 and 30 minutes, linear regression", "value": 1.42, "unit": "mg/kg"}
    ]},
    {"compound": "O=C(CCCN1CCC(O)(c2ccc(Cl)cc2)CC1)c1ccc(F)cc1", "note": "[Haloperidol]", "values": [
      {"measurement": "ED50", "value": 0.33, "unit": "mg/kg"}
    ]}
  ]
}
